These results are taken from ChEMBL document CHEMBL1126682, “Quinolone antimicrobial agents substituted with morpholines at the 7-position. Syntheses and structure-activity relationships” (J Med Chem, 1993).

Broadly, the MIC is the smallest concentration in the dilution series that meets the test's criterion for growth inhibition. Lower therefore signals a more susceptible organism. A word on the solubility: it is how much of the substance goes into solution per volume. A lower solubility goes with a poorly soluble substance. One may read the pIC50 as the IC50 on a negative log10 scale, so that one unit is a factor of ten.

pIC50: −log10 of the molar value. In brackets after ≈: the same amount, converted by molar mass.

Series [1] relates to Escherichia coli. Description: Minimum inhibition concentration against Escherichia coli NIHJ JC-2 strain. In kind it is functional.
The subject of the next series is Enterococcus faecalis. Description: Minimum inhibition concentration against Enterococcus faecalis LS-101 strain. The class given is functional.
The next series relates to Pseudomonas aeruginosa. Description: Minimum inhibition concentration against Pseudomonas aeruginosa U-31 strain. The class given is functional.
In series [2] the test system is Staphylococcus aureus. Briefly: Minimum inhibition concentration against Staphylococcus aureus FDA209P strain. In kind it is functional.
For a further series, the system named is Streptococcus pneumoniae. Briefly: Minimum inhibition concentration against Streptococcus pneumoniae Type I strain. In kind it is functional.
A short description of series [3]: The compound was evaluated for the solubility in water at 25 degrees Centigrade. In kind it is ADME.
The test system of series [4] is Escherichia coli. Briefly: Minimum inhibitory concentration against Escherichia coli KC14 strain. The class given is functional.
Series [5] addresses GABA-A receptor; anion channel. Briefly: Inhibition of [3H]muscimol binding to GABA A receptor 4-biphenylacetic acid at 10 e-4 M. The class given is protein-complex assay.
The target in series [6] is T1, GABA-A receptor; anion channel (Homo sapiens) (UniProt P14867+P47870+P18507+P28472+P48169+Q99928+Q9UN88+P34903+O00591+O14764+Q8N1C3+P18505+P78334+P47869+P31644+Q16445). Description: Percentage of GABA-induced chloride currents with 10 e-5 M 4-biphenylacetic acid. In kind it is functional. As to conditions: Bull Frog.
Series [7] deals with T1, GABA-A receptor; anion channel (Homo sapiens). Briefly: Percentage of GABA-induced chloride currents with 10e-4 M 4-biphenylacetic acid. The note with it: Bull Frog. The class given is functional.
For series [8] the target is unchanged. Briefly: Percentage of GABA-induced chloride currents with compound alone at 10 e-4 M. The note with it: Bull Frog. In kind it is functional.
For series [9], the system named is Mus musculus. Briefly: Percentage of mice with convulsion (400 mg/kg fenbufen). The class given is functional.
Series [10] concerns Mus musculus. Briefly: Percentage of mice with convulsion with compound alone at 400 mg/kg. In kind it is functional.
The subject of series [11] is Escherichia coli. Description: Effective dose against Escherichia coli KC14 strain in mouse. The class given is functional.
The test system of series [12] is Staphylococcus aureus. Briefly: Effective dose against Staphylococcus aureus smith strain in mouse. The class given is functional.
In series [13] the test system is Staphylococcus aureus. Description: Minimum inhibitory concentration against Staphylococcus aureus Smith. The class given is functional.
The target of series [14] is GABA-A receptor; anion channel. Briefly: Inhibition of [3H]muscimol binding to GABA A receptor with compound alone at 10 e-4 M. The class given is protein-complex assay.
The subject of series [15] is Staphylococcus aureus. Description: Minimum inhibition concentration against Staphylococcus aureus MRSA strain. In kind it is functional.

`CCN(CC)CC1CN(c2c(F)cc3c(=O)c(C(=O)O)cn(C4CC4)c3c2F)CCO1` (stereo not drawn): the MIC in the series with Escherichia coli [1] was 0.39 µg/mL (≈ 0.896 µM); against Enterococcus faecalis, 0.39 µg/mL (≈ 0.896 µM); against Pseudomonas aeruginosa, 6.25 µg/mL (≈ 14.4 µM); against Staphylococcus aureus [2], 0.1 µg/mL (≈ 0.23 µM); against Streptococcus pneumoniae it was 0.1 µg/mL (≈ 0.23 µM).
As to `O=C(O)c1cn(C2CC2)c2c(F)c(N3CCOC(CN4CCCCC4)C3)c(F)cc2c1=O` (stereo not drawn), the MIC in the series on Escherichia coli [1] was 3.13 µg/mL (≈ 6.99 µM); with Enterococcus faecalis it was 25 µg/mL (≈ 55.9 µM); against Pseudomonas aeruginosa, 50 µg/mL (≈ 112 µM); against Staphylococcus aureus [2], 0.78 µg/mL (≈ 1.74 µM); with Streptococcus pneumoniae, 6.25 µg/mL (≈ 14 µM).
Turning to `CCNCC1CN(c2c(F)cc3c(=O)c(C(=O)O)cn(C4CC4)c3c2F)CCO1` (stereo not drawn), the MIC against Escherichia coli [1] worked out at 0.1 µg/mL (≈ 0.245 µM); against Enterococcus faecalis, 0.2 µg/mL (≈ 0.491 µM); against Pseudomonas aeruginosa, 3.13 µg/mL (≈ 7.68 µM); in the series on Staphylococcus aureus [2] it was 0.1 µg/mL (≈ 0.245 µM); with Streptococcus pneumoniae, 0.05 µg/mL (≈ 0.123 µM).
`CN(C)CC1CN(c2c(F)cc3c(=O)c(C(=O)O)cn(C4CC4)c3c2F)CCO1` (stereo not drawn) registered a solubility in [3] of over 1000 µg/mL. Besides, the minimal inhibitory concentration (MIC) with Escherichia coli [1] worked out at 0.2 µg/mL (≈ 0.491 µM); with Escherichia coli [4], 0.05 µg/mL (≈ 0.123 µM); with Enterococcus faecalis it was 0.39 µg/mL (≈ 0.957 µM); against Pseudomonas aeruginosa, 3.13 µg/mL (≈ 7.68 µM); against Staphylococcus aureus [2], 0.025 µg/mL (≈ 0.0614 µM); with Staphylococcus aureus [13], 0.012 µg/mL (≈ 0.0295 µM). Besides, in the series on Streptococcus pneumoniae, it took 0.05 µg/mL (≈ 0.123 µM) to inhibit growth (MIC). Besides, the negative logarithm of the IC50 (pIC50) in [5] (read-out: IC50) and in series [14] was under 4.00 in each case. Further, the Currents in series [6] stood at 89%; in series [7], 83%; in [8], 91%. Besides, the Convulsion in the series on Mus musculus [9] and with Mus musculus [10] was 0% throughout. Moreover, the ED50 was 0.009 mg mouse-1 in the series on Escherichia coli [11] and 0.035 mg mouse-1 with Staphylococcus aureus [12].
Take `NCC1CN(c2c(F)cc3c(=O)c(C(=O)O)cn(C4CC4)c3c2F)CCO1` (stereo not drawn): in [3], the solubility was found to be 580 µg/mL (≈ 1530 µM). Also, the MIC amounted to 0.1 µg/mL (≈ 0.264 µM) in the series with Escherichia coli [1]; 0.05 µg/mL (≈ 0.132 µM) in the series with Escherichia coli [4]; 0.05 µg/mL (≈ 0.132 µM) in the series with Enterococcus faecalis; 0.78 µg/mL (≈ 2.06 µM) in the series with Pseudomonas aeruginosa; 0.025 µg/mL (≈ 0.0659 µM) against Staphylococcus aureus [2]; 0.012 µg/mL (≈ 0.0316 µM) with Staphylococcus aureus [13]. The compound further yielded a minimum inhibitory concentration (MIC) against Streptococcus pneumoniae of 0.05 µg/mL (≈ 0.132 µM). In addition, the pIC50 in series [5] (read-out: IC50) and in series [14] was under 4.00 in each case. In addition, the values for the Currents in [6], in series [7] and in series [8] were 90%, 72% and 90%, respectively. In addition, the Convulsion with Mus musculus [9] and with Mus musculus [10] was 0% throughout. In addition, the ED50 came out at 0.017 mg mouse-1 in the series with Escherichia coli [11] and 0.067 mg mouse-1 with Staphylococcus aureus [12].
On to `O=C(O)c1cn(C2CC2)c2cc(N3CCNCC3)c(F)cc2c1=O` [CIPROFLOXACIN], for which the MIC was under 0.006 µg/mL against Escherichia coli [4]; 0.39 µg/mL (≈ 1.18 µM) in the series on Enterococcus faecalis; 0.1 µg/mL (≈ 0.302 µM) against Pseudomonas aeruginosa; 0.1 µg/mL (≈ 0.302 µM) in the series on Staphylococcus aureus [2]; 0.1 µg/mL (≈ 0.302 µM) in the series with Staphylococcus aureus [13]; 0.39 µg/mL (≈ 1.18 µM) against Streptococcus pneumoniae. For the same compound, inhibition of growth with Staphylococcus aureus [15] (MIC) required 1.56 µg/mL (≈ 4.71 µM). The negative-log IC50 (pIC50) was 6.39 in series [5] and 4.00 in series [14]. Moreover, the values for the Currents in [6] and in series [8] were 0% and 64%, respectively. Also, the figures for the Convulsion in the series with Mus musculus [9] and in the series on Mus musculus [10] were 63% and 0%, respectively. The values for the ED50 in the series with Escherichia coli [11] and in the series with Staphylococcus aureus [12] were 0.007 mg mouse-1 and 0.354 mg mouse-1, respectively.
As for `CC1COc2c(N3CCN(C)CC3)c(F)cc3c(=O)c(C(=O)O)cn1c23` (stereo not drawn) [OFLOXACIN], the MIC is 0.1 µg/mL (≈ 0.277 µM) in the series with Escherichia coli [1]; 0.05 µg/mL (≈ 0.138 µM) in the series with Escherichia coli [4]; 0.78 µg/mL (≈ 2.16 µM) in the series with Enterococcus faecalis; 0.78 µg/mL (≈ 2.16 µM) against Pseudomonas aeruginosa; 0.2 µg/mL (≈ 0.553 µM) with Staphylococcus aureus [2]; 0.2 µg/mL (≈ 0.553 µM) against Staphylococcus aureus [13]. Moreover, in the series on Streptococcus pneumoniae, it took 0.78 µg/mL (≈ 2.16 µM) to inhibit growth (MIC). In addition, the negative logarithm of the IC50 (pIC50) in [5] (read-out: IC50) is 4.96; in series [14], under 4.00. Moreover, the Currents stood at 87% in series [6], 39% in series [7] and 94% in [8]. The Convulsion in the series with Mus musculus [9] and with Mus musculus [10] was 0% in each case. The ED50 with Escherichia coli [11] was found to be 0.009 mg mouse-1; with Staphylococcus aureus [12], 0.27 mg mouse-1.
As to `NCC1CN(c2c(F)cc3c(=O)c(C(=O)O)cn(C4CC4)c3c2F)CCCO1` (stereo not drawn), the minimal inhibitory concentration (MIC) in the series with Escherichia coli [1] was found to be 0.39 µg/mL (≈ 0.991 µM); in the series on Enterococcus faecalis, 1.56 µg/mL (≈ 3.97 µM); against Pseudomonas aeruginosa, 6.25 µg/mL (≈ 15.9 µM); with Staphylococcus aureus [2], 0.78 µg/mL (≈ 1.98 µM); against Streptococcus pneumoniae it was 1.56 µg/mL (≈ 3.97 µM).
Take `O=C(O)c1cn(C2CC2)c2c(F)c(N3CCNCC3)c(F)cc2c1=O`: the minimal inhibitory concentration (MIC) in the series with Escherichia coli [1] is 0.006 µg/mL (≈ 0.0172 µM); in the series on Enterococcus faecalis, 0.2 µg/mL (≈ 0.573 µM); with Pseudomonas aeruginosa, 0.1 µg/mL (≈ 0.286 µM); with Staphylococcus aureus [2], 0.1 µg/mL (≈ 0.286 µM); against Streptococcus pneumoniae, 0.39 µg/mL (≈ 1.12 µM); against Staphylococcus aureus [15] it was 0.78 µg/mL (≈ 2.23 µM). In addition, the pIC50 in series [5] (read-out: IC50) is 6.92; in series [14], 4.19. Also, the Currents in [6] was found to be 11%; in series [7] it was 0%; in series [8] it was 81%. In addition, the figures for the Convulsion with Mus musculus [9] and in the series with Mus musculus [10] were 88% and 0%, respectively.
As to `NCCC1CN(c2c(F)cc3c(=O)c(C(=O)O)cn(C4CC4)c3c2F)CCO1` (stereo not drawn), the MIC in the series on Escherichia coli [1] was determined as 1.56 µg/mL (≈ 3.97 µM); in the series with Enterococcus faecalis, 0.39 µg/mL (≈ 0.991 µM); in the series on Pseudomonas aeruginosa, 12.5 µg/mL (≈ 31.8 µM); with Staphylococcus aureus [2], 0.2 µg/mL (≈ 0.508 µM); with Streptococcus pneumoniae, 0.39 µg/mL (≈ 0.991 µM).
